The target in assay [1] is T1, Sentrin-specific protease 7 (Homo sapiens, UniProt Q9BQF6).
T1 sequence (Q9BQF6 whole entry): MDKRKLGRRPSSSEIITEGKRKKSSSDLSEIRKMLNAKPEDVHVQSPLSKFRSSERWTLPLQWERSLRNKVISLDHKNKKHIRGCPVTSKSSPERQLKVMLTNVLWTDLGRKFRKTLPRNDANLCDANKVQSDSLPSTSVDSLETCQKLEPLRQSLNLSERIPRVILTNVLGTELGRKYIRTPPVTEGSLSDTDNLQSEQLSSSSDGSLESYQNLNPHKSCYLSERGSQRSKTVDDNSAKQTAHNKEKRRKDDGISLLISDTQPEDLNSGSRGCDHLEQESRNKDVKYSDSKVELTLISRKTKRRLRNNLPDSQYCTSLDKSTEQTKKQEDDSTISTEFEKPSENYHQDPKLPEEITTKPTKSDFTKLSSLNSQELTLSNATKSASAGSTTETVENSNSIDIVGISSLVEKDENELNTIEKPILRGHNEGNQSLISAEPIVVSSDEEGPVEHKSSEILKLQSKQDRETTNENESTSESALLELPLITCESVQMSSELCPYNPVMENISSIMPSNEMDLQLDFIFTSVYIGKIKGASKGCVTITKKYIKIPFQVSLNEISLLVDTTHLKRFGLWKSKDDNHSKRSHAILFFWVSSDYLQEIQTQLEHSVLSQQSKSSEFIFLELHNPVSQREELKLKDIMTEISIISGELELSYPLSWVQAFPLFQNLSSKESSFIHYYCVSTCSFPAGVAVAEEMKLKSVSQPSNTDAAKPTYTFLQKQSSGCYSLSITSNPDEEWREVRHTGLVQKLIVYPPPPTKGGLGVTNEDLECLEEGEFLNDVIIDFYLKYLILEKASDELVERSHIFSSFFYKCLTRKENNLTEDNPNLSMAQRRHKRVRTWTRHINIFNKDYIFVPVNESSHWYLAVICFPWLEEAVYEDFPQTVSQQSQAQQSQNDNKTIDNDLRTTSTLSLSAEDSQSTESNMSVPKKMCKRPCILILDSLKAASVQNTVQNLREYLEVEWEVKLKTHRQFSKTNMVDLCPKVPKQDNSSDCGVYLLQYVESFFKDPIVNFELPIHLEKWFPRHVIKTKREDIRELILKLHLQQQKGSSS
As to the kind of experiment: inhibition of human SENP7 cleavage activity – biochemical, luminescence, set 2, SAR follow-up (AID 588600). The class given is functional.

Assay [2] addresses T2, Sentrin-specific protease 6 (Homo sapiens, UniProt Q9GZR1).
T2 sequence (Q9GZR1 whole entry): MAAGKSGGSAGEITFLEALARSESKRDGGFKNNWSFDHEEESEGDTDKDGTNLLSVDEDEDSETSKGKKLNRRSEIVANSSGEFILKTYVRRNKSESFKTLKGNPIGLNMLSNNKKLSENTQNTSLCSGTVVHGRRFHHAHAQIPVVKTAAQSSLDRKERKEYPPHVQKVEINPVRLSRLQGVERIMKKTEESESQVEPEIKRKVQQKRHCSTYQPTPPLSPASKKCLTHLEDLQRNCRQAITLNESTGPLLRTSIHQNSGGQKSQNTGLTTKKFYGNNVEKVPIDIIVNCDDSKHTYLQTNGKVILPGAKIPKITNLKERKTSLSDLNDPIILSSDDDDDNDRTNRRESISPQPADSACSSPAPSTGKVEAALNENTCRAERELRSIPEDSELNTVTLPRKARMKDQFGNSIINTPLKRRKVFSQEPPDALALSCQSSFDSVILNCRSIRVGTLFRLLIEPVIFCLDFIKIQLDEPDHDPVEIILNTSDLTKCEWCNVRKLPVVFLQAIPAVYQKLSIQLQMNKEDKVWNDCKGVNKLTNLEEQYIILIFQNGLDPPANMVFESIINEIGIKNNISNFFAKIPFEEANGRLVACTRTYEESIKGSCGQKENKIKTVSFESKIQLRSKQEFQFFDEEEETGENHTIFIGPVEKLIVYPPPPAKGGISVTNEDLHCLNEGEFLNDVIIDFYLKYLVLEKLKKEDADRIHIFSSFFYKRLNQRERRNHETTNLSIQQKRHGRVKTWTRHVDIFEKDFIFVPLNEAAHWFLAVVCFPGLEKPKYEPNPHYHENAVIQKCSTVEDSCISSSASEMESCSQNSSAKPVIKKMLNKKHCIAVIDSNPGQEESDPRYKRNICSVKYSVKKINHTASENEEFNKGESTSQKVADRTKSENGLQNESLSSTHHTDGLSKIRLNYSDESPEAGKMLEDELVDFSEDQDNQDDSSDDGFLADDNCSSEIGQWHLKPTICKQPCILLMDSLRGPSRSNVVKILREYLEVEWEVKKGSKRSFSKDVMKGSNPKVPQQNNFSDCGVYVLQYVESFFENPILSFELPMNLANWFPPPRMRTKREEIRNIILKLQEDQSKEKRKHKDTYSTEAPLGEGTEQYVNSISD
The experiment in a line: SAR Analysis of small molecule inhibitors of Sentrin-specific protease 6 (SENP6) using a Luminescent assay. [Related pubchem assays (depositor defined):AID2582, AID2599]. The class given is functional.

Assay [3] addresses T3, Sentrin-specific protease 8 (Homo sapiens, UniProt Q96LD8).
T3 sequence (Q96LD8 whole entry): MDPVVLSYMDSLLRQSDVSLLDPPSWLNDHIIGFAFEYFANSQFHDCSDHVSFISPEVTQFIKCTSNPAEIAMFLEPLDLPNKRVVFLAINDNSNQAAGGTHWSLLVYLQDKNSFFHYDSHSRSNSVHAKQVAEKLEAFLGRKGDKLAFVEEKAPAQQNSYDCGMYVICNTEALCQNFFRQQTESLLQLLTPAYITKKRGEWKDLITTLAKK
As to the kind of experiment: inhibition of human SENP8 cleavage activity – biochemical, luminescence, SAR follow-up (AID 504501). The class given is functional.

Assay [4] deals with T3, Sentrin-specific protease 8. The experiment in a line: inhibition of sentrin protease 8 – biochemical, luminescence, set 2, SAR follow-up (AID 588601). The format is functional.
The target of assay [5] is T2, Sentrin-specific protease 6. The experiment in a line: inhibition of human SENP6 catalytic domain – biochemical, luminescence, set 2, SAR follow-up (AID 588598). The class given is functional.
For assay [6], the target named is T4, Caspase-3 (Homo sapiens, UniProt P42574).
T4 sequence (P42574 whole entry): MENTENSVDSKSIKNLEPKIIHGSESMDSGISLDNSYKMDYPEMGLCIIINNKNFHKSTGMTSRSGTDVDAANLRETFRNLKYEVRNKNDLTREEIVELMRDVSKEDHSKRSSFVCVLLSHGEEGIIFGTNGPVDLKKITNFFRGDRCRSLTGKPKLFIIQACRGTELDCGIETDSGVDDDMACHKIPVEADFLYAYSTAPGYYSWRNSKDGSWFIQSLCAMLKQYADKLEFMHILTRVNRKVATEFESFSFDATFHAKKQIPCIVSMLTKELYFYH
The experiment in a line: SAR Analysis of small molecule inhibitors of Sentrin-specific proteases (SENPs) using a Caspase-3 Selectivity assay. [Related pubchem assays (depositor defined):AID2540, AID2599, AID434973, AID489001]. The format is functional.

The target of assay [7] is T1, Sentrin-specific protease 7. The experiment in a line: inhibition of human SENP7 cleavage activity – biochemical, luminescence, SAR follow-up (AID 504497). The class given is functional.
Assay [8] addresses T4, Caspase-3. As to the kind of experiment: inhibition of recombinant caspase-3 activity – biochemical, luminescence, set 2, selectivity assay for SENP protease inhibitor project, SAR follow-up (AID 588599). The class given is functional.
In another assay the target is Beta Lactamase (Pseudomonas aeruginosa, UniProt Q932Y6). The experiment in a line: BLA reporter interference, concentration series – BLA reporter cells, FRET fluorescence, artefact control for TLR9-MyD88 binding inhibitor project, dose response (AID 588341).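 Note: cell based assay in CHO-K1 cells stably expressing beta-lactamase.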 The class given is cell-based.
For another assay, the system named is CHO. As to the kind of experiment: CHO cell viability loss, potency – luminescence, cytotoxicity control for TLR9-MyD88 binding inhibitor project, dose response (AID 588339).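 Note: CHO cells stably coexpressing TLR9 and MyD88 fusions from primary screen; compound exposure lasted 48 hours before viability readout.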 The format is functional, cell-based, hamster. To be noted: Cricetulus griseus.
A short description of assay [9]: loss of viability in HepG2 cells – cell-based, CellTiter-Glo, cherry-picked, cytotoxicity control for Shn3 inhibitor project, dose response (AID 624134). The format is functional. A general note: In ATP-based viability assays light output follows the ATP content of the culture.
A short description of assay [10]: Trypanosoma cruzi growth suppression in host cells – NIH3T3 host cells, beta-gal luminescence, confirmation (AID 2044).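 Note: intracellular parasites grown in NIH/3T3 mouse fibroblasts as host cells; luminescent beta-galactosidase reporter signal from transgenic T. cruzi replicating inside host cells; inhibitors lower the luminescence signal.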 The format is functional, cell-based.
The subject of the next assay is HEK293. As to the kind of experiment: EBV LMP1 TES2 canonical NF-kB signalling blockers – cell-based, HEK293, luciferase, cherry-pick, dose response (AID 588343). The class given is functional. To be noted: Homo sapiens.
Assay [11] is described as follows: Luminescence Cell-Based Dose Retest to Confirm Inhibitors of Cancer Stem Cells. [Related pubchem assays (depositor defined):AID2717, AID2721]. The class given is functional. To be noted: Homo sapiens.
The next assay has as its system Streptococcus. As to the kind of experiment: GAS UMAA2166 growth inhibition – luminescence, BacTiterGlo, counter-screen for streptokinase expression inhibitor project, dose response (AID 1915).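 Note: potency for reduction of bacterial viability or growth.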 The class given is functional, organism-based. For orientation: Counterscreens check selectivity or assay interference.
The nature of assay [12]: Luminescence Cell-Based Dose Response HTS to Identify Inhibitors of 5'UTR Stem-Loop Driven Prion Protein mRNA Translation in H4 Neuroglioblastoma Cells. [Related pubchem assays: 1827 (Project Summary), 1813 (Primary HTS)]. The format is functional.
A short description of assay [13]: non-specific 3'UTR reporter inhibition in Clone20-Shn3RL – cell-based, Renilla luciferase, cherry-picked, counter-screen for Shn3 inhibitor project, dose response (AID 624133). The class given is functional.
Assay [14] can be described thus: alpha-synuclein stem-loop luciferase translation blockers – H4 neuroglioma cells, luminescence, confirmation (AID 1988). The format is functional, cell-based.
Assay [15] is described as follows: microbe, parasite or virus in culture. The class given is functional. To be noted: Mycobacterium tuberculosis.
For assay [16], the target named is Latent membrane protein 1 (Human herpesvirus 4 (strain B95-8), UniProt P03230). As to the kind of experiment: LMP1 TES1 pathway selectivity over dsRED control – imaging, HEK293T, dual-color eGFP/dsRED, cherry-picks, selectivity assay for LMP1 NF-kB inhibitor project, dose response (AID 588398). The class given is functional, cell-based.
Assay [17] is described as follows: reduction of Shn3 3'UTR-driven luciferase in osteoblasts – cell-based, Clone20 osteoblasts, firefly luciferase, cherry-picked, dose response (AID 624132).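 Note: firefly luciferase luminescence from reporter carrying the Shn3 3'UTR in osteoblasts.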 The class given is functional.
Assay [18] is described as follows: luciferase reporter signal suppression in cells – H4 neuroglioma cells, luminescence, dose response (AID 1990). The format is functional, cell-based. (In a reporter assay the amount or activity of a reporter protein is the signal.)
The next assay relates to INS1. As to the kind of experiment: INS-1E survival protection against cytokine death – cell-based, luminescence, retest, dose response (AID 449756).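 Note: cell death triggered by IL-1 beta plus TNF-alpha plus IFN-gamma mixture; protective hits raise ATP signal compared with cytokine alone wells.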 The format is functional. To be noted: Rattus norvegicus.
Assay [19] has as its system Streptococcus sp. 'group A'. As to the kind of experiment: Streptococcus pyogenes SK(-)GAS viability under kanamycin – luminescence, BacTiterGlo, confirmation, counter-screen for streptokinase expression inhibitor project, dose response (AID 1900). The format is functional, organism-based.
Assay [20] is described as follows: NIH3T3 cell viability loss – ATP luminescence, mouse fibroblasts, counter-screen, dose response (AID 2010).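 Note: cells exposed to compound for about 90 hours before reading.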 The format is functional, cell-based.

These results are taken from ChEMBL document CHEMBL1201862, “PubChem BioAssay data set” (2004).

In general, IC50 refers to the concentration that inhibits the measured activity by half. A word on the AC50: it is the concentration at which the activity in the assay is half-maximal. By EC50 is commonly meant the concentration that produces a half-maximal response.

Active and inactive are the calls of the source. A value given as a limit tells only on which side of the number the result lay.

Beta Lactamase, sequence (Q932Y6 whole entry, the tested form may be a part): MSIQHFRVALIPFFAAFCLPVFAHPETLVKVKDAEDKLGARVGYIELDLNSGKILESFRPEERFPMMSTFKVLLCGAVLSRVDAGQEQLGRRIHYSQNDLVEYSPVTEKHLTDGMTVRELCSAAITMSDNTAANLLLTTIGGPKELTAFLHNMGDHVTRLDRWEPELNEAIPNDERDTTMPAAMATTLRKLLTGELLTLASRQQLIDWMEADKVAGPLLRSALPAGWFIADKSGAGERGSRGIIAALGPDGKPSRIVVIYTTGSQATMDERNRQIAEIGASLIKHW
Latent membrane protein 1, sequence (P03230 whole entry): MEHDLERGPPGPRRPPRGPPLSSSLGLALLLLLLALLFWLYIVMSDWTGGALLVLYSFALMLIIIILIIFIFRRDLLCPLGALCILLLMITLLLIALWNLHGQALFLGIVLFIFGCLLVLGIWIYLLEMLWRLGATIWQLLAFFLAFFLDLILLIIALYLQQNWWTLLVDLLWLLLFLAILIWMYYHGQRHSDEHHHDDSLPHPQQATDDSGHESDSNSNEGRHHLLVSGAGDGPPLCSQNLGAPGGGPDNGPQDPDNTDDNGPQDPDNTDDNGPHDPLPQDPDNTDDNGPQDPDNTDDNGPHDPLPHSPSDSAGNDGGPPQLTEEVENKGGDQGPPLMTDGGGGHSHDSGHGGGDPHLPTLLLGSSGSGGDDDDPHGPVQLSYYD

Regarding `Fc1ccc(/C=C/c2noc(-c3c(F)cccc3F)n2)cc1`, the IC50 in assay [1] is 5.86 µM (active); in [2] it was > 99 µM (inactive); in assay [3], > 99 µM (inactive); in [4], 4.97 µM (active); in [5] it was 4.72 µM (active); at Caspase-3 [6] it was 34 µM (active). Besides, the IC50 in assay [7] was 11 µM (active); at Caspase-3 [8] it was 30.8 µM (active).
For `O=C1c2cccc3c(N4CCCCC4)ccc(c23)C(=O)N1c1ccccc1O`, the IC50 on Beta Lactamase was 7.63 µM (active); in the assay with CHO, > 49.8 µM (inactive).
Take `CCOC(=O)c1cnc(-n2nc(C)cc2C)nc1NNc1cc(C)nc(-c2ccccc2)n1`: the AC50 in assay [9] is 60 µM (active); in the assay with HEK293, 3.4 µM (active); in [11], 1.74 µM (active); in [13] it was 2.29 µM (active); in assay [16], 81.7 µM (active); in assay [17] it was 3.31 µM (active). The AC50 in the assay on INS1 is 2.14 µM (active). Besides, the EC50 in assay [10] is 0.355 µM (active); in the assay with Streptococcus, 1.02 µM (active); in assay [12] it was 2.8 µM (active); in [14], 6.73 µM (active); in [18], 0.584 µM (active); in assay [19] it was 0.344 µM (active). Further, the concentration for a half-maximal effect (EC50) in [20] was 56.7 µM (active). Further, the CC50 in assay [15] was 7.39 µM (active).
